Series [1] relates to Sclerotinia sclerotiorum strain FSc10. Put plainly: In vitro antifungal activity, mycelial growth inhibition on PDA medium. The class given is cell-based. The note with it: for fungal growth inhibition, S. sclerotiorum / inhibition of growth at 50 µg/mL: screening at basal 50 µg/mL, PDA medium, mean ± SD of three determinations; for inhibition of growth at 50 µg/mL: read-out: fungal growth inhibition, S. sclerotiorum; for IC50: log-logistic model, 0–50 µg/mL range, read-out: IC50 against Sclerotinia sclerotiorum (Ss).

Series [2] relates to Botrytis cinerea strain FBc05. The series is described as above. The class given is cell-based. The note with it: for fungal growth inhibition, B. cinerea / inhibition of growth at 50 µg/mL: screening at basal 50 µg/mL, PDA medium, mean ± SD of three determinations; for inhibition at 6.25 µg/mL / inhibition at 25 µg/mL / inhibition at 50 µg/mL / IC50 / inhibition of growth at 50 µg/mL: Botrytis cinerea, FBC05; for inhibition at 6.25 µg/mL / inhibition at 25 µg/mL / inhibition at 50 µg/mL: fungicidal profile, read-out: B. cinerea inhibition; for IC50: log-logistic model, 0–50 µg/mL range, read-out: IC50 against Botrytis cinerea (Bc); for inhibition of growth at 50 µg/mL: read-out: fungal growth inhibition, B. cinerea.

Series [3] has as its system Cerrena unicolor strain no. 139. The series is described as above. It counts as cell-based. The note with it: for inhibition of growth at 50 µg/mL / inhibition at 50 µg/mL / IC50: Cerrena unicolor, NO.139; for inhibition of growth at 50 µg/mL: read-out: fungal growth inhibition, C. unicolor; for inhibition at 50 µg/mL: fungicidal profile, read-out: C. unicolor inhibition; for IC50: log-logistic model, 0–50 µg/mL range, read-out: IC50 against Cerrena unicolor (Cu). The method, boiled down:
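Compounds in PDA plates (ethanol or DMSO co-solvent, 0.1–1.0% v/v), screened at 50 µg/mL, selected ones at 0–50 µg/mL; 5 mm mycelial plug placed centrally, 22 °C dark until co-solvent control covered (3 d B. cinerea, S. sclerotiorum; 7 d C. unicolor). IC50 from nonlinear dose–response fit, only where growth fell >50%.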

Series [4] deals with sunflower (Helianthus annuus L.) seeds. Put plainly: Phytotest 1: phytotoxicity, seed germination and root growth. The note with it: 50 µg/mL; versus water–ethanol 0.5% (v/v) control; <90% inhibition, 90–110% no effect, >110% stimulation. The class given is in vivo. The source says: In the experiments with plants, two aspects were taken under consideration: (1) phytotoxicity, which determined the toxicity of the hydrazide–hydrazones on seed germination and root growth, and (2) study on the behavior of seeds in the presence of the tested hydrazide–hydrazones and pathogens producing laccase (B. cinerea and S. sclerotiorum). The non-coated seeds of Linum usitatissimum, Helianthus annuus, and Brassica napus var. napus were provided by the Institute of Soil Science and Plant Cultivation, National Research Institute in Pulawy, Department of Weed Science and Tillage Systems, and Institute of Technology and Life Sciences–National Research Institute Falenty (Poland). Both phytotests were performed based on direct-contact microbiotests following the protocol recommended by the manufacturer (PhytotestkitTM, MicroBio Tests, Mariakerke, Belgium) with the authors’ modifications.
The main phytotest equipment (Tigret, Warsaw, Poland) and general methods are described as follows. Test plates (21 × 15.5 × 0.8 cm) provide optimal moisture and enable observation of seed germination and data reading at the end of the test. A single plate is made of polyvinylchloride and composed of both a transparent bottom and a covering part that are stuck together by a set of press buttons. […] Such prepared wet support was covered with a black filter paper that soaked the solution and was applied for further testing.
In the assay of phytotoxicity (1), the seeds of three dicota plants were used, namely ten seeds of flax or rapeseed and six seeds of sunflower. The seeds were transferred directly on the filter surface by placing them along the line at approximately 1 cm from the ridge at equal distances. Then, the seeds on the filter surface were covered with a covering part and placed in a holder.
All test plates were put vertically in a special incubator to allow free germination and growth of roots at 25 °C through 5 days in the dark. The test was performed in triplicate for each test plant. The results were expressed as the germination index values (GI, Equation (2)) concerning the plant growth controls in water–ethanol solution for (1). […] The GI was calculated from the formula and categorized as an inhibition for GI values < 90%, as stimulation > 110%, and between 90 and 110% as non-toxic/no effect as proposed in the literature. (2) GI,%=Gs×Ls/Gc×Lc×100% where Gs is seed germination (%), Ls is root elongation (mm) for the test plate, and Gc and Lc are corresponding values for the control plates. Gc was calculated as the proportion of germinated seeds in the test in relation to the number of germinated seeds in the control. The control was the representative number of seeds that germinated on a medium with 0.5% (v/v) of ethanol.

[5] abbreviates: screening at basal 50 µg/mL, PDA medium, mean ± SD of three determinations.
The mark [6] stands for this setting: Sclerotinia sclerotiorum, FSC10.
Setting [7] is: Sclerotinia sclerotiorum, FSC10, fungicidal profile, read-out: S. sclerotiorum inhibition.

Values after ≈ are worked out from the molar mass of the structure shown.

In the case of `O=C(N/N=C/c1cc(O)ccc1O)c1ccc(O)cc1` [compound 13], the “fungal growth inhibition, S. sclerotiorum” value in series [1] is listed as “n.o”. In series [2], the “fungal growth inhibition, B. cinerea” value is reported as “n.o”. Besides, the “fungal growth inhibition, C. unicolor” value in series [3] (setting [5]) is “n.o”. Also, the “Germination index (GI), sunflower, test 1” value in series [4] worked out at 87%.
Turning to `COc1cc(/C=N/NC(=O)c2ccc(O)cc2)ccc1O` [compound 17], the inhibition of growth at 50 µg/mL in series [1] (setting [6]) came out at 7.3 ± 2.1%; in series [3] (setting [5]) it was 11.9 ± 0.8%. Further, the “fungal growth inhibition, B. cinerea” value in series [2] is given as “n.o”.
Broadly, the inhibition is the change of the read-out against control, counted positive when it falls. A word on the IC50: it is the concentration at which inhibition is half-maximal. For the compound `CC(C)(C)c1cccc(/C=N/NC(=O)c2ccc(O)cc2)c1O` [compound 18], in series [1] (setting [7]), the inhibition at 6.25 µg/mL lay in the range of 70.6 to 87.6% and the inhibition at 12.5 µg/mL amounted to 96.3%. In series [1] (setting [6]), the IC50 was 1.8 µg/mL (≈ 5.76 µM) and the inhibition of growth at 50 µg/mL was 97.1 ± 1.1%. In series [2], the inhibition at 6.25 µg/mL is 20.2%, the inhibition at 25 µg/mL was determined as 56.4%, the inhibition at 50 µg/mL amounted to 64.7% and the IC50 is 20 µg/mL (≈ 64 µM). Further, the inhibition of growth at 50 µg/mL in series [2] was 82.1 ± 3.1%. Besides, in series [3], the inhibition at 50 µg/mL stood at 76.5% and the IC50 came to 18.3 µg/mL (≈ 58.6 µM). For the same compound, the inhibition of growth at 50 µg/mL in series [3] (setting [5]) came out at 85.9 ± 2.1%. Moreover, the “Germination index (GI), sunflower, test 1” value in series [4] is given as “no effect”.
With `O=C(N/N=C/c1cccc(-c2ccccc2)c1O)c1ccc(O)cc1` [compound 19], in series [1] (setting [6]), the IC50 worked out at 69.9 µg/mL (≈ 210 µM) and the inhibition of growth at 50 µg/mL is 50.6 ± 5.5%. For the same compound, in series [2], the inhibition at 6.25 µg/mL amounted to 30.1%, the inhibition at 25 µg/mL stood at 70.1%, the inhibition at 50 µg/mL turned out to be 74.1% and the IC50 is 13.9 µg/mL (≈ 41.8 µM). Besides, the inhibition of growth at 50 µg/mL in series [2] came to 73.5 ± 3.3%. In addition, in series [3], the inhibition at 50 µg/mL was 70.5% and the IC50 stood at 20.3 µg/mL (≈ 61.1 µM). For the same compound, the inhibition of growth at 50 µg/mL in series [3] (setting [5]) was found to be 71.4 ± 2.1%. In series [4], the “Germination index (GI), sunflower, test 1” value was “no effect”.
Regarding `Cc1cc(/C=N/NC(=O)c2ccc(O)cc2)c(O)c(CO)c1` [compound 25], the “fungal growth inhibition, S. sclerotiorum” value in series [1] is on record as “n.o”. Also, the values for the inhibition of growth at 50 µg/mL in series [2] and in series [3] (setting [5]) were 2.8 ± 1.9% and 70.1 ± 1.8%, respectively. In series [4], the “Germination index (GI), sunflower, test 1” value is “non-toxic”.
`CC(C)(C)c1cc(/C=N/NC(=O)c2ccc(O)cc2)c(O)c(C(C)(C)C)c1` [compound 27]: the inhibition at 6.25 µg/mL in series [1] (setting [7]) is 82.9%. Further, the inhibition at 50 µg/mL in series [1] (Sclerotinia sclerotiorum, FSC10, fungicidal profile, 50 µg/mL, read-out: S. sclerotiorum inhibition) was 93.1%. In addition, the results for the IC50 in series [1] (setting [6]) and in series [3] were 0.5 µg/mL (≈ 1.36 µM) and 2190 µg/mL (≈ 5950 µM), respectively. The inhibition of growth at 50 µg/mL amounted to 85.5 ± 3.2% in series [1] (setting [6]), 23.4 ± 2.7% in series [2] and 42.8 ± 2.2% in series [3] (setting [5]). The “Germination index (GI), sunflower, test 1” value in series [4] is reported as 82%.
Regarding `Cc1cc(/C=N/NC(=O)c2ccc(O)cc2)c(O)c(C(C)(C)C)c1` [compound 30], in series [1] (setting [7]), the inhibition at 6.25 µg/mL was 70.6 to 87.6% and the inhibition at 12.5 µg/mL amounted to 98.7%. For the same compound, in series [1] (setting [6]), the IC50 worked out at 0.8 µg/mL (≈ 2.45 µM) and the inhibition of growth at 50 µg/mL is 96.8 ± 2.2%. Besides, in series [2], the concentration for half-maximal inhibition (IC50) amounted to 62.5 µg/mL (≈ 191 µM) and the inhibition of growth at 50 µg/mL turned out to be 76.2 ± 2.2%. Also, in series [3], the inhibition at 50 µg/mL is 90.5% and the IC50 turned out to be 13.5 µg/mL (≈ 41.4 µM). The inhibition of growth at 50 µg/mL in series [3] (setting [5]) came to 89.8 ± 0.4%. Moreover, in series [4], the “Germination index (GI), sunflower, test 1” value amounted to 67%.

For the origin of these results see article PMC11124341, “4-Hydroxybenzoic Acid-Based Hydrazide–Hydrazones as Potent Growth Inhibition Agents of Laccase-Producing Phytopathogenic Fungi That Are Useful in the Protection of Oilseed Crops” (Molecules, 2024).
